According to US20060121607A1, “Compositions and methods for neural differentiation of embryonic stem cells” (priority 2002, published 2006):

Assays:
human ES cells = test: Comparison of basic media for TH+ cell formation in human embryoid bodies; format: cell-based; conditions: DMEM and 100 μM L-proline, absence of FGF2
Protocol: Embryoid bodies/neurospheres from human ES cells were grown without the use of MEDII conditioned media Media and supplements used were Hams DMEM/F12 (Gibco Cat # 11320-033), ITSS (Gibco Cat#17502-048) and N2 (Gibco Cat#41400-045).
The ability of basic media with supplements (DMEM+N2 or ITSS) to promote neural differentiation of hES cells was compared with medium that included F12: (DMEM:F12 (1:1)+N2 or ITSS).
Trypsinised Human ES cells were seeded at approximately 10 to 20 cells/μl of media into 10 ml of neurosphere media (DMEM:F12, 10 μg/ml heparin (SIGMA), 1/50 B27 (GIBCO), 1/100 pen/strep, 1/100 ITSS) in a T75 culture flask. 10 ng/ml FGF2 was optionally added but the culture medium was preferably mitogen-free (no FGF2). Cultures were maintained in the media for 9 days after which the embryoid bodies were optionally transferred to poly-L-ornithine/laminin plates and cultured in the same media for a further 6 days. The embryoid bodies so formed (EB^15), whether from adherent or suspension culture, were then triturated to near single cell form and used for either transplantation or for the formation of neurospheres/cell reaggregates.
Example 15 was repeated utilising human ES cells and a minimal media consisting of DMEM and 100 μM L-proline. The results were similar to those described in Example 5. […]

SSEA4 selected HESCs = conditions: 50 μM Proline, around 3 weeks suspension
Excerpt: Essentially serum free embryoid bodies were generated from bulk passaged monolayer HESC colonies as described in Example 5, in the presence of the media set out below.

[1] = system: sfEBM single cell suspension; test: Clonal derivation of colonies from dispersed sfEBM in suspension; format: cell-based, human; conditions: medium containing the factor alone
Protocol: sfEBMs were transferred to tissue culture dishes (4-well or 35 mm) and were rinsed with Ca^2+/Mg^2+ free PBS. After settling, the PBS was aspirated and 1 or 2 ml of 0.25% trypsin was added. sfEBMs were dispersed to a single cell suspension, with occasional doublets or triplets, by gentle trituration using a 1 ml pipette. The cell suspension was transferred to a 15 ml tube, diluted with 9 or 18 ml of medium and pelleted by centrifugation. The pellet was resuspended in DMEM/F12 supplemented with 1×N2 supplement, FGF-2 (4 ng/ml), 50% MEDII and added to agarose coated suspension dishes at low density (0.5-5 cells/μl). These cultures were not disturbed for 4-5 days, when small uniform colonies could be observed. Colonies could be harvested at approximately 10 days.
In an attempt to derive clones of essentially serum free embryoid bodies, trypsin was used to generate single cell suspensions from sfEBM cultures and low density cell suspensions, from 0-0.5-5 cells/μl, were incubated in suspension dishes. […] The synergistic activities of FGF2 and MEDII in the derivation of clonal sfEBMs was unexpected. […] The colonies produced were presumed to be clonal, and proliferated to as much as 0.2 mm in diameter within 10 days. The cloning efficiency was in the order of 4.5-6%.

Compound	TH+ cells in EB^17 bodies (human ES cells) [%]	appearance of sfEBPs with low cell death and distinct neural rosette structures (SSEA4 selected HESCs)	generation of clonal colonies [1]
O=C(O)[C@@H]1CCCN1 [L-proline]	~50	noticeably enhanced	–
FGF-2: fibroblast growth factor FGF-2	–	–	No clonal colonies
